Test results reported in US20190150437A1, “USE OF SESQUITERPENES AND THEIR ANALOGS AS GREEN INSECTICIDES FOR CONTROLLING DISEASE VECTORS AND PLANT PESTS” (Ohio State Innovation Foundation, priority 2016, published 2019).
Entries after “also recorded” stand apart in the source; their conditions may differ. Marks after values point to notes of the source that are not given here.

Assays:
[1] = tested on: Alpha-glucosidase (EC 3.2.1.20); assay: Alpha-Glucosidase Inhibition Assay; assay type: biochemical; details: for Alpha-glucosidase inhibitory activity, in words / alpha-Glucosidase inhibition (%): 0.1 mg/mL final concentration
Procedure: Alpha-Glucosidase Inhibition Assay.
The assay was performed according to the 126 Journal of Natural Products, 2008. Vol. 71. No. 1 Notes
method described by Oki and co-workers, with slight modifications.^13 alpha-Glucosidase was purchased from Toyobo Co., Ltd. (Osaka. Japan). The enzyme solution was prepared by dissolving 0.6 U/mL of Alpha-glucosidase in 100 mM phosphate buffer (pH 7) containing 2 g/L bovine serum albumin and 0.2 g/L NaN3. p-Nitrophenyl-R-D-glucopyranoside (5 mM) in the same buffer solution (pH 7) was used as a substrate solution. The enzyme solution (50 μL) and the test compounds (10 μL), dissolved in DMSO to a final concentration of 0.1 mg/mL, were mixed in each well of the microliter 96-well culture plates and measured spectrophotometrically (absorbance 405 nm) at zero time, using a microplate reader (Bio-Rad model 550 microplate reader). The mixture was preincubated for 5 min at room temperature before the addition of substrate solution ([…]) and followed by a 5 min incubation at room temperature. The increase in absorbance from zero time was measured. The inhibitory activity was expressed as […] minus the relative absorbance difference (%) of test compounds to absorbance change of the control where the test solution was replaced by DMSO. 1-Deoxynojirimycin (Wako Pure Chemical Industries, Ltd.) 0.3 mM in DMSO was used as a positive control.

[2] = tested on: A. aegypti 1st instar larvae; assay: Larval mosquito toxicity, compound added to rearing water, 24 h; assay type: in vivo, Aedes aegypti; details: for Larval mosquitoes EC50 in ppm (95% CI), A. aegypti: larvae, 24 h after adding to rearing water
Procedure: (§1) A,C) Concentration-toxicity relationships in 1st instar larvae 24 h after adding CINEX or indicated compound to the rearing water. B,D) Dose-toxicity relationships in adult females 24 h after applying CINEX or indicated compound to the thoracic cuticle. CDIAL=OSU-1.
(§2) Each compound of cinnamodial (CDIAL), cinnafragrin A (CM18) and cinnamosmolide (CMOS) were isolated form the barks of the Madagascan plants Cinnamosma fragrans, Cinnamosma macrocarpa and Cinnamosma madagascariensis. Each was dissolved in 100% acetone and applied directly to the cuticle of adult female mosquitoes (Aedes aegypti, Anopheles gambiae, and Culex pipiens) or 3rd instar nymph soybean aphids (Aphis glycines). The bark extract and the isolated compounds was toxic to larval and adult female mosquitoes within 24 hr in a concentration/dose dependent manner (FIGS. 4 and 5). Among the isolated compounds.

C. pipiens larvae = assay: as above; assay type: in vivo, Culex pipiens; details: 24 h after adding to rearing water
Procedure: (§3) The concentration/dose-toxicity relationships for Ae. aegypti from FIG. 4 are superimposed to facilitate comparisons.
as §2

A. gambiae larvae = assay: as above; assay type: in vivo, Anopheles gambiae; details: 24 h after adding to rearing water
Procedure: as §3, §2

A. aegypti adult females = assay: Adult female mosquito toxicity, applied to thoracic cuticle, 24 h; assay type: in vivo, Aedes aegypti; details: for Adult female mosquitoes ED50 in μg/mg mosquito (95% CI), A. aegypti: adult females, 24 h after applying to thoracic cuticle, in acetone
Procedure: as §1, §2

C. pipiens adult females = assay: as above; assay type: in vivo, Culex pipiens; details: 24 h after applying to thoracic cuticle, in acetone
Procedure: as §3, §2

A. gambiae adult females = assay: as above; assay type: in vivo, Anopheles gambiae; details: 24 h after applying to thoracic cuticle, in acetone
Procedure: as §3, §2

[3] = tested on: soybean aphid Aphis glycines; assay: Soybean aphid toxicity, applied to cuticle of 3rd instar nymphs, 24 h; assay type: in vivo; details: for ED50 in aphids: 3rd instar nymphs, 24 h after application to cuticle
Procedure: Dose-toxicity relationships in 3rd instar nymphs 24 h after adding CINEX or indicated compound to the thoracic cuticle. CDIAL=OSU-1.
as §2

[4] = tested on: adult female Aedes aegpti; assay: Blood-feeding bioassay (mosquito repellency, membrane feeder); assay type: in vivo, Aedes aegypti; details: 20.8 μg/cm^2 on nylon fabric covering the blood source, 1 h
Description: FIG. 8 is a graph showing repellent efficacy of CINEX and CDIAL (OSU-1) compared to DEET, an industry standard. Values are means±SEM; N=31, 9, 5, and 15 respectively for Control, DEET, CINEX, and CDIAL. Lower-case letters indicate statistical categorization of the means as determined by a one-way ANOVA with a Newman-Keuls posttest (P<0.05).
We used a blood-feeding bioassay to test the efficacy of OSU-1 (CDIAL) and the C. fragrans bark extract (CINEX) to repel mosquitoes from feeding on a blood source. In brief, cages of 20 mosquitoes (adult female Aedes aegpti) were starved for 24 h before being allowed to feed on a membrane feeder (Hemotek) containing defibrinated rabbit blood. After 1 h, the mosquitoes were immobilized on ice and the number of individuals with blood in their abdomen was counted. The membrane feeder maintains the blood at a constant temperature of 37° C. (human body temperature) and is covered with a collagen membrane that mimics human skin. Mosquitoes pierce through the collagen membrane with their proboscis to obtain the blood. […] Lower-case letters indicate statistical categorization of the means as determined by a one-way ANOVA with a Newman-Keuls posttest (P<0.05).

[5] = tested on: Alpha-glucosidase (EC 3.2.1.20); details: reported in references 2 and 3; cited from earlier work

Molecule | Larval mosquitoes EC50 in ppm (95% CI), A. aegypti [2] | Adult female mosquitoes ED50 in μg/mg mosquito (95% CI), A. aegypti (A. aegypti adult females) | ED50 in aphids [3] [μg/aphid] | Alpha-glucosidase inhibitory activity, in words [1] | alpha-Glucosidase inhibition (%) [1] | other results
OC[C@H]1NC[C@H](O)[C@@H](O)[C@@H]1O [1-deoxynojirimycin, reference compound] | – | – | – | – | – | alpha-Glucosidase inhibition (%), positive control ([1]; 0.3 mM in DMSO, positive control): 100%
CC(=O)O[C@@H]1C=C(C=O)[C@@](O)(C=O)[C@@]2(C)CCCC(C)(C)C12 (stereo partly shown) [CDIAL, cinnamodial] | 21.6 ppm | 0.09 μg/mg mosquito | 0.38 | most potent activity | 83.7% | Toxicity to larval mosquitoes, in words ([2]; within 24 hr, concentration dependent): most potent and efficacious; Larval mosquitoes EC50 in ppm (95% CI), C. pipiens (C. pipiens larvae): 13.3† ppm; Larval mosquitoes EC50 in ppm (95% CI), A. gambiae (A. gambiae larvae): 29.8 ppm; Toxicity to adult female mosquitoes, in words (A. aegypti adult females; within 24 hr, dose dependent): most potent and efficacious; Adult female mosquitoes ED50 in μg/mg mosquito (95% CI), C. pipiens (C. pipiens adult females): 0.17† μg/mg mosquito; Adult female mosquitoes ED50 in μg/mg mosquito (95% CI), A. gambiae (A. gambiae adult females): 0.05† μg/mg mosquito; Toxicity to aphids, in words ([3]; within 24 h of application): most potent; Percentage of mosquitoes feeding on a blood source, in words [4]: significantly reduced; Alpha-glucosidase inhibition, in words, from earlier papers [5]: strong inhibition
CC(=O)O[C@@H]1C=C(C2OC3OC(O)C4=C[C@@H](OC(C)=O)C5C(C)(C)CCC[C@]5(C)[C@]43O2)[C@@](O)(C=O)[C@@]2(C)CCCC(C)(C)C12 (stereo partly shown) [CM18, cinnafragrin A] | 22.6 ppm | 2.03* μg/mg mosquito | 1.7 | – | – | –
CC(=O)O[C@@H]1C=C2C(=O)OCC2(O)[C@@]2(C)CCCC(C)(C)C12 (stereo partly shown) [CMOS, cinnamosmolide] | 134.4* ppm | 3.94* μg/mg mosquito | 2.5 | – | 20.0% | –
COC1OC(OC)C2(O)C1=CC(OC(C)=O)C1C(C)(C)CCCC12C (stereo not shown) [Compound 2, cinnamodial 11R,12-dimethyl acetal] | – | – | – | – | not active | –
CC1(C)CCC[C@@]2(C)[C@H]1[C@H](O)C=C1C(=O)OC[C@]12O [Compound 3, pereniporin B] | – | – | – | – | 7.2% | –
CC(=O)O[C@@H]1[C@@H](O)C2=C(C(=O)OC2)[C@@]2(C)CCCC(C)(C)[C@H]12 [Compound 4, ugandensolide] | – | – | – | moderate effects; also recorded: moderate activity | 46.2% | –
CC1(C)CCC[C@]2(C)[C@@H](C=O)C(C=O)=CC[C@@H]12 [Compound 5, polygodial] | – | – | – | only slight activity; also recorded: did not show any activity | 2.1% | –
CC1(C)CCC[C@]2(C)[C@H](C=O)C(C=O)=CC[C@@H]12 [isopolygodial, reference compound] | – | – | – | – | – | Alpha-glucosidase inhibition, in words, from earlier papers [5]: did not show any activity
cinnamadin [Compound 1] | – | – | – | moderate effects | 14.9% | –
